Columns and labels:
Class A ESBL SHV-5 = target: T1, Class A ESBL SHV-5 (Klebsiella pneumoniae, UniProt P0A3M1); type: biochemical, E. coli; settings: purified beta-lactamase enzyme (Examples 1 and 31-64); nitrocefin 100 μM, PBS pH 7.0; read-out: SHV-5 IC50 Range
T1 construct: made in house; host or cells: E. coli BL21(DE3) for purified enzyme; E. coli cells containing SHV-5 for extracts
Procedure: (§1) Isolation of β-lactamases. For all examples, purified beta-lactamase enzymes were used to measure a compounds' ability to inhibit the Class A ESBL CTXM-15, the Class C P99 AmpC and the Class A carbapenemase KPC-2. […] The enzyme preparations are described herein.
For the preparation of SHV-5 extracts, E. coli cells containing SHV-5 were cultured overnight with shaking at a volume of 20 mL. They were further diluted 10-fold and grown to mid-log phase (OD at 600 nm, 0.5-0.8) in Mueller-Hinton II (MH-II) broth at 37° C. The cells were pelleted at 5000 g, washed and resuspended in 2 mL PBS pH 7.0. The β-lactamase was extracted by four cycles of freezing and thawing followed by centrifugation. β-lactamase activity in the extract was measured with the chromogenic cephalosporin nitrocefin. The amount of protein in each β-lactamase preparation was determined by the bicinchoninic acid (BCA) assay.
(§2) For the isolation and purification of SHV-5, p99 AmpC, KPC-2 and CTX-M15 β-lactamases, E. coli BL21(DE3) bacterial cells carrying expression plasmids (expressed as native untagged proteins) for the individual β-lactamases were grown in 1 L of Superbroth (Teknova Inc. Hollister, Calif.) supplemented with 100 μg/ml kanamycin and 1×5052 (0.5% glycerol, 0.05% glucose and 0.2% α-lactose) at 35° C. for 18-20 hours. Cells were harvested by centrifugation (4,000×g, 4° C., 20 min), and resuspended in 50 ml of 10 mM HEPES pH 7.5 ( 1/20 of the initial volume). The cells were lysed by sonication (5 pulses of 45 seconds) at 45 W on ice. The lysates were clarified by centrifugation at 10,000×g for 40 minutes at 4° C. Samples were diluted 5-fold in 50 mM sodium acetate pH 5.0, stored overnight at 4° C., after which they were centrifuged at 10,000×g for 30 minutes to clarify, and filtered through 0.45 μm filters. The samples were loaded onto a 5 ml Capto S sepharose cation exchange column (GE Healthcare) pre-equilibrated with 50 mM sodium acetate pH 5.0. The column was washed with 5 column volumes of 50 mM sodium acetate pH 5.0 to wash out unbound protein and a linear gradient of NaCl (0 to 500 mM) was used to elute the protein (over 16 CV) from the column. Fractions were assayed for β-lactamase activity using Centa (Calbiochem, Gibbstown, N.J.) as a reporter β-lactamase substrate for activity in the isolated fractions. Active fractions were pooled, concentrated and further purified by gel filtration chromatography on a Superdex 75 prep grade gel filtration column (GE Healthcare, Piscataway, N.J.) pre-equilibrated in 50 mM Hepes pH 7.5, 150 mM NaCl. Active fractions were pooled concentrated, quantitated by BCA protein determination (Thermo Scientific, Rockford, Ill.), and frozen at −80° C. in 20% glycerol until use.
(§3) β-lactamase Inhibition. To determine the level of inhibition of β-lactamaseenzymes, compounds were diluted in PBS at pH 7.0 to yield concentrations between 100 and 0.005 μM in microtiter plates. An equal volume of diluted enzyme stock was added, and the plates were incubated at 37° C. for 10 min. Nitrocefin solution was then dispensed as substrate into each well at a final concentration of 100 μM, and the plates were immediately read with the kinetic program at 486 nm for 10 min on the SPECTRAMAX® Plus^384 (high-throughput microplate spectrophotometer; Molecular Devices Corp., Sunnyvale, Calif.). Maximum rates of metabolism were then compared to those in control wells (without inhibitors), and percentages of enzyme inhibition were calculated for each concentration of inhibitor. The concentration of inhibitor needed to reduce the initial rate of hydrolysis of substrate by 50% (IC50) was calculated as the residual activity of β-lactamase at 486 nm using the SoftMax Pro 5.0 software (Molecular Devices Corp.).

Class A ESBL CTXM-15 = target: T2, Class A ESBL CTXM-15 (Escherichia coli, UniProt Q9EXV5); assay: β-lactamase enzyme inhibition (nitrocefin hydrolysis), CTXM-15; type: biochemical; settings: purified enzyme; nitrocefin 100 μM, PBS pH 7.0; read-out: CTXM-15 IC50 Range
T2 construct: made in house; host or cells: E. coli BL21(DE3)
Procedure: as §1, §2, §3

Class C P99 AmpC = target: T3, Class C P99 AmpC (Enterobacter cloacae, UniProt P05364); type: biochemical; settings: purified enzyme; nitrocefin 100 μM, PBS pH 7.0; read-out: P99 AmpC IC50 Range
T3 construct: made in house; host or cells: E. coli BL21(DE3)
Procedure: as §1, §2, §3

[1] = target: T4, Class A carbapenemase KPC-2 (Klebsiella pneumoniae, UniProt Q9F663); assay: β-lactamase enzyme inhibition (nitrocefin hydrolysis), KPC-2; type: biochemical; settings: purified enzyme; nitrocefin 100 μM, PBS pH 7.0; read-out: KPC-2 IC50 Range
T4 construct: made in house; host or cells: E. coli BL21(DE3)
Procedure: as §1, §2, §3

[2] = test system: E. coli expressing the Class A ESBL SHV-5; assay: microbe, parasite or virus in culture; type: cell-based; settings: in the presence of fixed 8 μg/mL Ceftazidime
Source text: (§4) To determine the ability of test compounds to potentiate the inhibition of the growth of bacterial strains producing beta-lactamase enzymes, classic cell based screening assays were employed. Four bacteria strains producing beta-lactamase enzymes were used: K. pneumoniae expressing the Class A Extended Spectrum Beta-Lactamase (ESBL) CTX-M-15, E. coli expressing the Class A ESBL SHV-5, E. cloacae expressing the Class C P99+, and K. pneumoniae expressing the Class A carbapenemase KPC-2. In order to evaluate the ability of test compounds to inhibit beta-lactamase activity, Applicants used a modification of the broth microdilution assay. The assay was conducted in Cation Adjusted Mueller Hinton Broth (CAMHB, BD # 212322, BD Diagnostic Systems, Sparks, Md.). Bacteria strains were grown for 3-5 hours in CAMBH broth. All four strains were grown in presence of 50 μg/mL ampicillin to ensure resistance is maintained. In the meantime, test compounds were diluted in DMSO to a 0.1 mg/mL stock. The compounds were added to a microtiter plate and were diluted in 2-fold serial dilutions in CAMHB in a final concentration range of 8 μg/mL to 0.015 μg/ml. An overlay of CAMHB containing a cephalosporin was added to the compounds at a final static concentration of 8 μg/ml. […] Each of these compound plates are made in quadruplicate, one for each bacteria strain. In addition to the titration of test compounds the MICs of a panel of cephalosporins is also tested to ensure the strains are behaving consistently from test to test. Once the test compound and cephalosporin are added the plates can be inoculated. Inocula are conducted according to CLSI broth microdilution method. After inoculation the plates are incubated for 16-20 hours at 37° C. then the Minimal Inhibitory Concentration (MIC) of the test compound is determined visually.

[3] = test system: K. pneumoniae expressing the Class A carbapenemase KPC-2; assay: microbe, parasite or virus in culture; settings: in the presence of fixed 8 μg/mL Ceftazidime
Source text: as §4

[4] = test system: K. pneumoniae expressing the Class A ESBL CTX-M-15; assay: microbe, parasite or virus in culture; type: cell-based; settings: in the presence of fixed 8 μg/mL Ceftazidime
Source text: as §4, with “An overlay of CAMHB containing a cephalosporin was added to the compounds at a final static concentration of 8 μg/ml.” left out

T1 sequence (P0A3M1 22-286): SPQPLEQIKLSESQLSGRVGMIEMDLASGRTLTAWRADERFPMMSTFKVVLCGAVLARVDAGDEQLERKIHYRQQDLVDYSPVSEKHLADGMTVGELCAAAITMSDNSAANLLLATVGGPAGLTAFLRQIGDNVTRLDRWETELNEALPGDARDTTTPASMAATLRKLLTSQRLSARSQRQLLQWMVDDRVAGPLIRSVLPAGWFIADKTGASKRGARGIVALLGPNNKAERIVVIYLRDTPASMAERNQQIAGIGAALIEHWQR
T3 sequence (P05364 21-381): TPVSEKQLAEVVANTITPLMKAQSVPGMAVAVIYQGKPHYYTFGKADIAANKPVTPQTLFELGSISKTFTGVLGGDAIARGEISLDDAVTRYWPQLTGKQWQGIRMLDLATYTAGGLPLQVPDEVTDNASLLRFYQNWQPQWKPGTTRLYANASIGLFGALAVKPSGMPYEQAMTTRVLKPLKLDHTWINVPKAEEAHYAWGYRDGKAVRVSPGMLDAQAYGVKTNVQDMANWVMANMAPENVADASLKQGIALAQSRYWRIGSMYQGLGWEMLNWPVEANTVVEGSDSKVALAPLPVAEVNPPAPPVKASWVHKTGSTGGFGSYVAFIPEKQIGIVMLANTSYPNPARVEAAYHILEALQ
T2 sequence (Q9EXV5 entry or part of it): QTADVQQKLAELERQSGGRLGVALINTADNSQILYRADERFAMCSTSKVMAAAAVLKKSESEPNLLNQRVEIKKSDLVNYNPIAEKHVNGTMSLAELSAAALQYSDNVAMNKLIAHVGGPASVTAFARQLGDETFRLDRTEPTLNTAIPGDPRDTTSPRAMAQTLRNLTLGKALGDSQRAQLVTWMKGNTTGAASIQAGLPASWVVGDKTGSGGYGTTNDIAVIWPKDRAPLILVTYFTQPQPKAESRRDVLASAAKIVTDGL
T4 sequence (Q9F663 25-293 limits assumed): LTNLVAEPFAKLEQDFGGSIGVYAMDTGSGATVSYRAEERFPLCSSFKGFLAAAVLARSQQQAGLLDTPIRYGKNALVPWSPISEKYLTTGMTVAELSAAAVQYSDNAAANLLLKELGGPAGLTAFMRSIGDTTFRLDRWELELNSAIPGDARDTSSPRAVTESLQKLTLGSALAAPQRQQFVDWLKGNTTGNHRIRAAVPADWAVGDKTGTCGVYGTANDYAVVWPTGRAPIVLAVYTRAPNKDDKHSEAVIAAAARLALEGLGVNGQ

Row | SMILES | IC50 (Class A ESBL SHV-5) [nM] | IC50 (Class A ESBL CTXM-15) [nM] | IC50 (Class C P99 AmpC) [nM] | IC50 [1] [nM] | MIC of example compound, E. coli SHV-5 + 8 μg/mL CAZ [2] | MIC of example compound, K. pneumoniae KPC-2 + 8 μg/mL CAZ [3] | MIC of example compound, K. pneumoniae CTX-M-15 + 8 μg/mL CAZ [4]
1 | COc1ccccc1C(=O)N[C@@H](Cc1cccc(C(=O)O)c1O)B(O)O [Example 34, (1R)-1-(2-methoxybenzoylamino)-2-(2-hydroxy-3-carboxyphenyl)ethyl-1-boronic acid] | 100 to 1000 | < 10 | < 10 | 10 to 100 | A (A represents an MIC >8 μg/mL) | C (C represents an MIC of <1 μg/mL) | 
2 | O=C(Cn1cccn1)N[C@@H](Cc1cccc(C(=O)O)c1O)B(O)O [Example 40, (1R)-1-(Pyrazol-1-yl-acetylamino)-2-(2-hydroxy-3-carboxyphenyl)ethyl-1-boronic acid] | 10 to 100 | 10 to 100 | 10 to 100 | 10 to 100 |  | C (C represents an MIC of <1 μg/mL) | C (C represents an MIC of <1 μg/mL)
3 | O=C(N[C@@H](Cc1cccc(C(=O)O)c1O)B(O)O)c1ccc(N2CCOCC2)nc1 [Example 48, (1R)-1-(6-morpholin-4-yl-pyridine-3-carbonyl)-amino-1-(3-carboxy-2-hydroxy)benzyl-methylboronic acid] | 100 to 1000 | < 10 | 10 to 100 | < 10 | A (A represents an MIC >8 μg/mL) | C (C represents an MIC of <1 μg/mL) | 
4 | O=C(CNC(=O)c1ccccc1)N[C@@H](Cc1cccc(C(=O)O)c1O)B(O)O [Example 50, (1R)-1-(Hippuric amido)-2-(2-hydroxy-3-carboxyphenyl)ethyl-1-boronic acid] | < 10 | < 10 | < 10 | < 10 |  | C (C represents an MIC of <1 μg/mL) | C (C represents an MIC of <1 μg/mL)
5 | O=C(N[C@@H](Cc1cccc(C(=O)O)c1O)B(O)O)c1cccnc1 [Example 51, (1R)-1-(Nicotinoylamino)-2-(2-hydroxy-3-carboxyphenyl)ethyl-1-boronic acid] | 10 to 100 | < 10 | < 10 | < 10 |  | C (C represents an MIC of <1 μg/mL) | C (C represents an MIC of <1 μg/mL)
6 | Cn1ccc(C(=O)N[C@@H](Cc2cccc(C(=O)O)c2O)B(O)O)n1 [Example 53, (1R)-1-(1-Methyl-1H-pyrazole-3-carbonyl-amino)-2-(2-hydroxy-3-carboxyphenyl)ethyl-1-boronic acid] | 100 to 1000 | < 10 | < 10 | < 10 |  | C (C represents an MIC of <1 μg/mL) | C (C represents an MIC of <1 μg/mL)
7 | O=C(N[C@@H](Cc1cccc(C(=O)O)c1O)B(O)O)c1cncnc1 [Example 60, (1R)-1-(Pyrimidine-5-carbonyl-amino)-2-(2-hydroxyl-3-carboxyphenyl)ethyl-1-boronic acid] | 10 to 100 | 10 to 100 | < 10 | < 10 |  | C (C represents an MIC of <1 μg/mL) | C (C represents an MIC of <1 μg/mL)
8 | O=C(Cc1ccccn1)N[C@@H](Cc1cccc(C(=O)O)c1O)B(O)O.O=CO [Example 61, (1R)-1-(2-Pyridylacetylamino)-2-(2-hydroxy-3-carboxyphenyl)ethyl-1-boronic acid formate salt] | < 10 | < 10 | < 10 | 10 to 100 |  | C (C represents an MIC of <1 μg/mL) | C (C represents an MIC of <1 μg/mL)
9 | CS(=O)(=O)c1ccc(CC(=O)N[C@@H](Cc2cccc(C(=O)O)c2O)B(O)O)cc1 [Example 62, (1R)-1-(2-(4-(methylsulfonyl)phenyl)-acetylamino)-2-(2-hydroxy-3-carboxyphenyl)ethyl-1-boronic acid] | < 10 | < 10 | < 10 | < 10 |  | C (C represents an MIC of <1 μg/mL) | C (C represents an MIC of <1 μg/mL)

From patent publication US20100120715A1, “BETA-LACTAMASE INHIBITORS” (priority 2007, published 2010)
